Test results published in ChEMBL document CHEMBL5032530, “Discovery of Benzocyclic Sulfone Derivatives as Potent CXCR2 Antagonists for Cancer Immunotherapy” (J Med Chem, 2021).
Active and inactive are the calls of the source. The calls are words filed in the database; no cut-off is given here.

Columns and labels:
[1] = molecular target: C-C chemokine receptor type 7 (Homo sapiens) (UniProt P32248); assay: Antagonist activity against CCR7 (unknown origin) assessed as inhibition of beta-arrestin 2 recruitment at 10 microM by beta arrestin assay relative to control; type: functional; parameters: scale not given: the % may be the effect or the level left
Chain of C-C chemokine receptor type 7 (Homo sapiens) (P32248 whole entry): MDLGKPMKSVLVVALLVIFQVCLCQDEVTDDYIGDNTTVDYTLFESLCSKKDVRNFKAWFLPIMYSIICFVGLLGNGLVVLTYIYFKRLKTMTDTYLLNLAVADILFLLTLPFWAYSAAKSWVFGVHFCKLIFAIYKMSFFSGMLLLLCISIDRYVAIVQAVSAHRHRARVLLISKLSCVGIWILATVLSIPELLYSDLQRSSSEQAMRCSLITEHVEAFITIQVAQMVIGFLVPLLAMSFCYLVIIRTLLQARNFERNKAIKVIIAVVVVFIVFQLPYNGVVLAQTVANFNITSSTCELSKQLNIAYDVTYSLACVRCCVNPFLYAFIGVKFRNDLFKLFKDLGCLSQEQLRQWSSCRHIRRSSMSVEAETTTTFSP

[2] = molecular target: C-C chemokine receptor type 6 (Homo sapiens) (UniProt P51684); assay: Agonist activity against CCR6 (unknown origin) assessed as induction of beta-arrestin 2 recruitment at 10 microM by beta arrestin assay relative to control; type: functional
Chain of C-C chemokine receptor type 6 (Homo sapiens) (P51684 whole entry): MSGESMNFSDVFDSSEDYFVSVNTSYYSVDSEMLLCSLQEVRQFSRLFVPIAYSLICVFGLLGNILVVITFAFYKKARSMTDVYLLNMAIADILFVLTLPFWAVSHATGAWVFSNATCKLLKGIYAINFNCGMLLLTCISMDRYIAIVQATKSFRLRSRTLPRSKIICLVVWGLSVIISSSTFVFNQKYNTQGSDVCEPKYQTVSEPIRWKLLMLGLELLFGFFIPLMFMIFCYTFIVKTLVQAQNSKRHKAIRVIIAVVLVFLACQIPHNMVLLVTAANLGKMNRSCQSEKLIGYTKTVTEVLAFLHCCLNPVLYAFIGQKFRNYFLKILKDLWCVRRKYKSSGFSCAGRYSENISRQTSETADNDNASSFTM

Panc02 [3] = assay: Cytotoxicity against mouse Panc02 cells assessed as reduction in cell viability measured after 72 hrs by CCK8 assay; type: cell-based; conditions: panc02, 72 h
[4] = Tmax in ICR mouse at 3 mg/kg, iv measured upto 48 hrs; type: ADME, organism-based; conditions: in vivo
[5] = molecular target: C-X-C chemokine receptor type 2 (Homo sapiens) (UniProt P25025); assay: Agonist activity against CXCR2 (unknown origin) assessed as induction of beta-arrestin 2 recruitment at 10 microM by beta arrestin assay relative to control; type: functional
[6] = molecular target: T1, C-X-C chemokine receptor type 2 (Homo sapiens, UniProt P25025); assay: Displacement of [I-125]-interleukin-8 against human recombinant CXCR2 expressed in CHO-K1 cells incubated for 60 mins by radio ligand binding assay; type: cell-based
T1 sequence (P25025 whole entry): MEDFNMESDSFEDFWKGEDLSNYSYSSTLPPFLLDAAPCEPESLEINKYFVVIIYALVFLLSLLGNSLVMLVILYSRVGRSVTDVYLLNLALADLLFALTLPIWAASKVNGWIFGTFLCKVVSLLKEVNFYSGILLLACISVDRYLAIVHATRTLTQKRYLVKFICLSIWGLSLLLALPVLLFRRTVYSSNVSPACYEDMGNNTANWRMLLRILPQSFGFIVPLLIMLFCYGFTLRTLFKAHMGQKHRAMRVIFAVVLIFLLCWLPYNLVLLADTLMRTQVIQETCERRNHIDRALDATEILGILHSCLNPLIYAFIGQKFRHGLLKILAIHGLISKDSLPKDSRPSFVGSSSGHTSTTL

Panc02 [7] = assay: Antitumour activity against mouse Panc02 cells xenografted in mouse assessed as reduction in infiltration of granulocytic MDSCs into tumor tissue at 3 mg/kg, po bid measured after 15 days by flow cytometry analysis; type: functional, organism-based; conditions: time 15.0 day
[8] = Clearance in ICR mouse at 3 mg/kg, iv measured upto 48 hrs; type: ADME, organism-based; conditions: in vivo
[9] = AUC (0 to infinity) in ICR mouse at 30 mg/kg, po measured upto 48 hrs; type: ADME, organism-based; parameters: route oral, dose 30 mg/kg, time <=48; conditions: ICR, in vivo
Panc02 [10] = assay: Antitumour activity against mouse Panc02 cells xenografted in mouse assessed as change in CD11b expressing immune cells infiltration into tumor tissue using LY6C antibody at 30 mg/kg, po bid measured after 15 days by flow cytometry analysis (reference value: 20.5%); type: functional; conditions: time 15 day
[11] = molecular target: C-C chemokine receptor type 5 (Homo sapiens) (UniProt P51681); assay: Antagonist activity against CCR5 (unknown origin) assessed as inhibition of beta-arrestin 2 recruitment at 10 microM by beta arrestin assay relative to control; type: functional; parameters: scale not given: the % may be the effect or the level left
Chain of C-C chemokine receptor type 5 (Homo sapiens) (P51681 whole entry, looked up): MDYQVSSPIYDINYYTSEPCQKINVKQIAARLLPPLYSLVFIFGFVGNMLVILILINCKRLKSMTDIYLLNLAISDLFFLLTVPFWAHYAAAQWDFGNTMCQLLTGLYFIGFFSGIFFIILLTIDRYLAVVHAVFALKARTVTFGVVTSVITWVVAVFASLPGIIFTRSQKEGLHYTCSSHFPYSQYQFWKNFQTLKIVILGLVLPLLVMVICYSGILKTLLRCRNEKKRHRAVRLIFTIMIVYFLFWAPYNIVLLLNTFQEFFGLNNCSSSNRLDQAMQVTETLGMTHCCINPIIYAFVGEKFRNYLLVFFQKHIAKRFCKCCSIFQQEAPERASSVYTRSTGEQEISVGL

[12] = molecular target: C-C chemokine receptor type 3 (Homo sapiens) (UniProt P51677); assay: Antagonist activity against CCR3 (unknown origin) assessed as inhibition of beta-arrestin 2 recruitment at 10 microM by beta arrestin assay relative to control; type: functional; parameters: scale not given: the % may be the effect or the level left
Chain of C-C chemokine receptor type 3 (Homo sapiens) (P51677 whole entry): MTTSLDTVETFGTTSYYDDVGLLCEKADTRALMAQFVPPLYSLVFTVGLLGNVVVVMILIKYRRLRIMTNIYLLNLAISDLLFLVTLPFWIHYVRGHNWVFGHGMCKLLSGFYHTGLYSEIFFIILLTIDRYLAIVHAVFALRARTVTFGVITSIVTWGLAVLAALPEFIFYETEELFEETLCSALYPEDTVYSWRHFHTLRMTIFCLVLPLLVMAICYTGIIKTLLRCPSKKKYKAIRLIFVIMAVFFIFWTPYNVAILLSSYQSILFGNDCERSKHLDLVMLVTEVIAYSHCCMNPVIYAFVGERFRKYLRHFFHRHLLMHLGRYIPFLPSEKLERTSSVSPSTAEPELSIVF

Neutrophil = assay: In vivo antagonist activity at CXCR2 in carrageenan-induced C57BL/6 mouse air pouch inflammation model assessed as reduction in neutrophil infiltration into air pouch at 30 mg/kg, po bid administered after 3 days of carrageenan treatment for 3 days; type: functional, organism-based; conditions: time 3.0 day
[13] = molecular target: C-C chemokine receptor type 4 (Homo sapiens) (UniProt P51679); assay: Agonist activity against CCR4 (unknown origin) assessed as induction of beta-arrestin 2 recruitment at 10 microM by beta arrestin assay relative to control; type: functional
Chain of C-C chemokine receptor type 4 (Homo sapiens) (P51679 whole entry): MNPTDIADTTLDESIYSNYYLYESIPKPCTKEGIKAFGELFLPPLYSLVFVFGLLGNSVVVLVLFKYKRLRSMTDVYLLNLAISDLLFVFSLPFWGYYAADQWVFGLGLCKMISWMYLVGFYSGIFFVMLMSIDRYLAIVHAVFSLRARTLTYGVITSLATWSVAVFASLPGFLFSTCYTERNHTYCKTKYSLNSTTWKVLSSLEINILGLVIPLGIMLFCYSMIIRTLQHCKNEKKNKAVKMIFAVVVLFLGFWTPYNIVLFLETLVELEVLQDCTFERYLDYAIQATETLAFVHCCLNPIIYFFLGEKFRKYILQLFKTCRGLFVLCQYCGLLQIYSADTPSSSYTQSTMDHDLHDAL

Panc02 [14] = assay: Antitumour activity against mouse Panc02 cells xenografted in mouse assessed as change in CD11b expressing immune cells infiltration into tumor tissue using LY6G antibody at 10 mg/kg, po bid measured after 15 days by flow cytometry analysis (reference value: 29.7%); type: functional; conditions: time 15 day
[15] = molecular target: CX3C chemokine receptor 1 (Homo sapiens) (UniProt P49238); assay: Antagonist activity against CX3CR1 (unknown origin) assessed as inhibition of beta-arrestin 2 recruitment at 10 microM by beta arrestin assay relative to control; type: functional; parameters: scale not given: the % may be the effect or the level left
Chain of CX3C chemokine receptor 1 (Homo sapiens) (P49238 whole entry): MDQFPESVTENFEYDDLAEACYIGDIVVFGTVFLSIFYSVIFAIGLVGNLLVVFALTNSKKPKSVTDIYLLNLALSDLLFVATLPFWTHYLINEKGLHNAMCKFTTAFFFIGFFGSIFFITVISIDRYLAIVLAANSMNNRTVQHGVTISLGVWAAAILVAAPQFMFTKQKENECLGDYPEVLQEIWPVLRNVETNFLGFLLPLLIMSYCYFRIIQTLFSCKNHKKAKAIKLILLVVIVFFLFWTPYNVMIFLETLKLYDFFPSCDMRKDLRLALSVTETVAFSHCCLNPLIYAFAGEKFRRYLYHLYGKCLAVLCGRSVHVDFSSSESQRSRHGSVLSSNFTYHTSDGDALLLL

[16] = molecular target: C-C chemokine receptor type 2 (Homo sapiens) (UniProt P41597); assay: Antagonist activity against CCR2 (unknown origin) assessed as inhibition of beta-arrestin 2 recruitment at 10 microM by beta arrestin assay relative to control; type: functional; parameters: scale not given: the % may be the effect or the level left
Chain of C-C chemokine receptor type 2 (Homo sapiens) (P41597 whole entry, looked up): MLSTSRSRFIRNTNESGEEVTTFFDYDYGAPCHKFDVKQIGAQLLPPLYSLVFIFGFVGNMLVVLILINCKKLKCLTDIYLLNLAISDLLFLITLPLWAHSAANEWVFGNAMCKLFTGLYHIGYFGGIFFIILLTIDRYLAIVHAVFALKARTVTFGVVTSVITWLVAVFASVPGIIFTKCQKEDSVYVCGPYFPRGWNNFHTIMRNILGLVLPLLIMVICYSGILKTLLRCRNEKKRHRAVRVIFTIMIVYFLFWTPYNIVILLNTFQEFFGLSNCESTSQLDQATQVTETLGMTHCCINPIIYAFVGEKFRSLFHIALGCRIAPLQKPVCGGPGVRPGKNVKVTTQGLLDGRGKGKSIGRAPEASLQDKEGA

Mus musculus = assay: Effect on granulocytic MDSCs level in mouse xenografted with […] cells at 10 to 30 mg/kg, po bid measured after 15 days by immunohistochemical analysis; type: ADME, organism-based; conditions: in vivo, 360 h, dose 10-30 mg/kg, time 15 day
[17] = molecular target: C-C chemokine receptor type 4 (Homo sapiens) (UniProt P51679); assay: Antagonist activity against CCR4 (unknown origin) assessed as inhibition of beta-arrestin 2 recruitment at 10 microM by beta arrestin assay relative to control; type: functional; parameters: scale not given: the % may be the effect or the level left
[18] = Tmax in ICR mouse at 30 mg/kg, po measured upto 48 hrs; type: ADME, organism-based; conditions: in vivo
[19] = molecular target: Chemerin-like receptor 1 (Homo sapiens) (UniProt Q99788); assay: Antagonist activity against CMKLR1 (unknown origin) assessed as inhibition of beta-arrestin 2 recruitment at 10 microM by beta arrestin assay relative to control; type: functional; parameters: scale not given: the % may be the effect or the level left
Chain of Chemerin-like receptor 1 (Homo sapiens) (Q99788 whole entry): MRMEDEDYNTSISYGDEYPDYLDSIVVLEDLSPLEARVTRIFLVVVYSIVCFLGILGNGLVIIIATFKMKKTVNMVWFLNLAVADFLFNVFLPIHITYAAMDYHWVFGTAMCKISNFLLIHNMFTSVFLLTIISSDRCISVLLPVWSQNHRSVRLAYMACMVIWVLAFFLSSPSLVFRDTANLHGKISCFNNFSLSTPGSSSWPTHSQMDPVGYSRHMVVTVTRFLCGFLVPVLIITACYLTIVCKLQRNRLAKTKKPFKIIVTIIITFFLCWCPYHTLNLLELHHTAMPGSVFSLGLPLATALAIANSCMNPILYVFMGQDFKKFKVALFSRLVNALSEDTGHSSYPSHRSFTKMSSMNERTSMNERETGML

MIA PaCa-2 = assay: Cytotoxicity against human MIA PaCa-2 cells assessed as reduction in cell viability measured after 72 hrs by CCK8 assay; type: cell-based; conditions: MIA PaCa-2, 72 h
Panc02 [20] = assay: Antitumour activity against mouse Panc02 cells xenografted in mouse assessed as change in CD45 expressing immune cells infiltration into tumor tissue at 30 mg/kg, po bid measured after 15 days by flow cytometry analysis (reference value: 2.3%); type: functional; conditions: time 15 day
Panc02 [21] = assay: Antitumour activity against mouse Panc02 cells xenografted in mouse assessed as change in Gr1 expressing immune cells infiltration into tumor tissue at 10 mg/kg, po bid measured after 15 days by flow cytometry analysis (reference value: 27.4%); type: functional; conditions: time 15 day
[22] = molecular target: C-C chemokine receptor type 3 (Homo sapiens) (UniProt P51677); assay: Agonist activity against CCR3 (unknown origin) assessed as induction of beta-arrestin 2 recruitment at 10 microM by beta arrestin assay relative to control; type: functional
[23] = molecular target: C-X-C chemokine receptor type 6 (Homo sapiens) (UniProt O00574); assay: Agonist activity against CXCR6 (unknown origin) assessed as induction of beta-arrestin 2 recruitment at 10 microM by beta arrestin assay relative to control; type: functional
Chain of C-X-C chemokine receptor type 6 (Homo sapiens) (O00574 whole entry, looked up): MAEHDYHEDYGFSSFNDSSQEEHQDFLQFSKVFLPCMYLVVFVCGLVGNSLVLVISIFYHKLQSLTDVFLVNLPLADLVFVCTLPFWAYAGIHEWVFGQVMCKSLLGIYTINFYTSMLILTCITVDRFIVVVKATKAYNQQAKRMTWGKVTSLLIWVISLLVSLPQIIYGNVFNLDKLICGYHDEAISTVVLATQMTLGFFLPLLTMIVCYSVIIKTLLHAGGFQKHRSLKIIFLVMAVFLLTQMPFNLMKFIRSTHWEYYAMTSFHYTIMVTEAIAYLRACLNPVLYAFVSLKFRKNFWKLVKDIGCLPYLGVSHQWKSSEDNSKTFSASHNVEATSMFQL

[24] = molecular target: C-C chemokine receptor type 8 (Homo sapiens) (UniProt P51685); assay: Antagonist activity against CCR8 (unknown origin) assessed as inhibition of beta-arrestin 2 recruitment at 10 microM by beta arrestin assay relative to control; type: functional; parameters: scale not given: the % may be the effect or the level left
Chain of C-C chemokine receptor type 8 (Homo sapiens) (P51685 whole entry): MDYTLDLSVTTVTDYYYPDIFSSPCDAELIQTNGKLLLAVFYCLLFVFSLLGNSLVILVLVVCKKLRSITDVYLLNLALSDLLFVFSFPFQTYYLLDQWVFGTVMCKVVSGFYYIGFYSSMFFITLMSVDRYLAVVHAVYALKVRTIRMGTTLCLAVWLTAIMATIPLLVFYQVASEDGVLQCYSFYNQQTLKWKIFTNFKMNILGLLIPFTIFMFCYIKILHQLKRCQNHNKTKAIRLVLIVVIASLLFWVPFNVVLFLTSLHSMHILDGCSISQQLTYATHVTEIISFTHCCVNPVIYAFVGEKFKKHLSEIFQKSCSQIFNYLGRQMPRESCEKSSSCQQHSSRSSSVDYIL

[25] = molecular target: C-C chemokine receptor type 9 (Homo sapiens) (UniProt P51686); assay: Agonist activity against CCR9 (unknown origin) assessed as induction of beta-arrestin 2 recruitment at 10 microM by beta arrestin assay relative to control; type: functional
Chain of C-C chemokine receptor type 9 (Homo sapiens) (P51686 whole entry): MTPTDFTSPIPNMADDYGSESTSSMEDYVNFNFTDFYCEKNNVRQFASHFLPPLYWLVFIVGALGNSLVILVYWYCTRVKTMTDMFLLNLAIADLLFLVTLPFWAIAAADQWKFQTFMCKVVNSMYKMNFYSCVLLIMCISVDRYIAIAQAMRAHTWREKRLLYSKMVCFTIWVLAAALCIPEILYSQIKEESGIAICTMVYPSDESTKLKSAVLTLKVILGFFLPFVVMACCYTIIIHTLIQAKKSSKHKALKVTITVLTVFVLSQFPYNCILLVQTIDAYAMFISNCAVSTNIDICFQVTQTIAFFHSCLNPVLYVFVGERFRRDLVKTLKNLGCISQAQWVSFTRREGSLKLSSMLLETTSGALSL

[26] = molecular target: C-X-C chemokine receptor type 6 (Homo sapiens) (UniProt O00574); assay: Antagonist activity against CXCR6 (unknown origin) assessed as inhibition of beta-arrestin 2 recruitment at 10 microM by beta arrestin assay relative to control; type: functional; parameters: scale not given: the % may be the effect or the level left
[27] = Cmax in ICR mouse at 30 mg/kg, po measured upto 48 hrs; type: ADME, organism-based; parameters: route oral, dose 30 mg/kg, time <=48; conditions: in vivo

## Cc1c(F)cccc1NC(=O)Nc1ccc2c(c1O)S(=O)(=O)CCC2
[1]
  Activity: 20%
[2]
  Activity: < 10%
Panc02 [3]
  Activity: Non-Toxic
[4]
  Tmax: 1.8 min
[5]
  Activity: < 10%
[6]
  Ki: 1.24 µM
Panc02 [7]
  Activity: Active
[8]
  clearance: 8.22 L/h/kg
[9]
  AUC(0-inf): 0.229 µg·h/mL
Panc02 [10]
  Activity: 15.3%
[11]
  Activity: < 10%
[12]
  Activity: 13%
Neutrophil
  Activity: Active
[13]
  Activity: < 10%
Panc02 [14]
  Activity: 14%
[15]
  Activity: < 10%
[16]
  Activity: 17%
Mus musculus
  Activity: Non-Toxic
[17]
  Activity: 10%
[18]
  Tmax: 84.6 min
[19]
  Activity: < 10%
MIA PaCa-2
  IC50: > 10 µM
Panc02 [20]
  Activity: 42.3%
Panc02 [21]
  Activity: 11.2%
[22]
  Activity: < 10%
[23]
  Activity: < 10%
[24]
  Activity: < 10%
[25]
  Activity: < 10%
[26]
  Activity: 17%
[27]
  Cmax: 0.019 µg/mL
